Where a name gives a salt, the structure may show the parent alone.
Tests used:
[1] = Fraction of drug in microparticles and in MCT oil carrier after storage; assay type: physicochemical
Description: Mixtures ranged from 2% to 10% w/w of the active pharmaceutical ingredient. The mixed powder was transferred to an extruder where the temperature was adjusted according to the chosen polymer. Some polymers needed higher temperatures to produce a melt with good flow properties. The extruder contained twin screws that moved clockwise to produce efficient mixing. The material was extruded through a 1.5 mm orifice, collected, cooled at room temperature, and cut into short strands about 1-2 inches long. These strands were then fed into a 12-tooth rotor mill, followed by a sieving step to produce microparticles of about 20 to 100 microns. The microparticles were collected and stored at 5° C. until further use.
Experimental samples were prepared by dispersing about 50 mg of the microparticles into 0.75 mL of a MCT oil carrier. The samples were stored at 5° C. and 25° C. for two days, two weeks, or one month, at which times representative samples were tested. The fraction of drug that remained in the microparticles and the fraction of drug that partitioned into the MCT oil carrier were determined. Briefly, the samples were centrifuged to separate the microparticles from the MCT oil carrier. Each portion was treated independently to determine the amount of drug it contained. Results are reported on the basis of the percent residing in each independent portion.

Solubility in MCT oil = assay type: physicochemical; conditions: oil or lipid
[2] = PLGA copolymer, 1 Month Storage at 5° C.
[3] = PLGA copolymer, 1 Month Storage at 25° C.
[4] = PLGA copolymer, 2 Days Storage at 5° C.
[5] = PLGA copolymer, 2 Days Storage at 25° C.
[6] = polycaprolactone/PLGA copolymer, Two Weeks Storage, 5° C.
[7] = polycaprolactone/PLGA copolymer, Two Weeks Storage, 25° C.

| Compound | drug in MCT Carrier [1, 2] [%] | drug in Microparticles [1, 2] [%] | drug in MCT Carrier [1, 3] [%] | drug in Microparticles [1, 3] [%] | drug in MCT Carrier [1, 4] [%] | drug in Microparticles [1, 4] [%] | drug in MCT Carrier [1, 5] [%] | drug in Microparticles [1, 5] [%] | drug in MCT Carrier [1, 6] [%] | drug in Microparticles [1, 6] [%] | drug in MCT Carrier [1, 7] [%] | drug in Microparticles [1, 7] [%] | solubility (Solubility in MCT oil) [mg/mL] |
| --- | --- | --- | --- | --- | --- | --- | --- | --- | --- | --- | --- | --- | --- |
| CN(C)c1ccc(O)c2c1C[C@H]1C[C@H]3[C@H](N(C)C)C(O)=C(C(N)=O)C(=O)[C@@]3(O)C(O)=C1C2=O [minocycline, minocycline HCl] | 0.1 | 99.9 | 0.4 | 99.6 | 0.9 | 99.1 | 0.6 | 99.4 |  |  |  |  |  |
| CC[C@H](C)[C@H](NC(=O)[C@@H]1CCCN1C(=O)CNC(=O)[C@H](Cc1ccccc1)NC(=O)[C@H](CC(N)=O)NC(=O)[C@H](CC(N)=O)NC(=O)[C@H](CO)NC(=O)[C@H](CO)NC(=O)[C@H](Cc1c[nH]cn1)NC(=O)[C@@H](NC(=O)[C@H](CC(C)C)NC(=O)[C@H](Cc1ccccc1)NC(=O)[C@H](CC(N)=O)NC(=O)[C@H](C)NC(=O)[C@H](CC(C)C)NC(=O)[C@H](CCCNC(=N)N)NC(=O)[C@H](CCC(N)=O)NC(=O)[C@@H](NC(=O)[C@H](C)NC(=O)[C@@H]1CSSC[C@H](NC(=O)[C@@H](N)CCCCN)C(=O)N[C@@H](CC(N)=O)C(=O)N[C@@H]([C@@H](C)O)C(=O)N[C@@H](C)C(=O)N[C@@H]([C@@H](C)O)C(=O)N1)[C@@H](C)O)C(C)C)C(=O)N[C@@H](CC(C)C)C(=O)N1CCC[C@H]1C(=O)N1CCC[C@H]1C(=O)N[C@H](C(=O)N[C@@H](CC(N)=O)C(=O)N[C@H](C(=O)NCC(=O)N[C@@H](CO)C(=O)N[C@@H](CC(N)=O)C(=O)N[C@H](C(=O)N[C@@H](Cc1ccc(O)cc1)C(N)=O)[C@@H](C)O)C(C)C)[C@@H](C)O [pramlintide] | 0.3 | 99.7 | 0.0 | 100.0 | 0.0 | 100.0 | 0.0 | 100.0 | 0.0 | 100.0 | 0.0 | 100.0 |  |
| O=C(O)c1ccccc1O [salicylic acid] | 0.1 | 99.9 | 0.2 | 99.8 | 1.1 | 98.9 | 0.9 | 99.1 |  |  |  |  | > 30 |
| O=C([O-])c1ccccc1O.[Na+] [sodium salicylate] | 1.3 | 98.7 | 1.5 | 98.5 | 0.5 | 99.5 | 2.3 | 97.7 |  |  |  |  |  |
| bovine serum albumin | 0.0 | 100.0 | 0.0 | 100.0 | 0.0 | 100.0 | 0.0 | 100.0 |  |  |  |  |  |
| davalintide | 0.6 | 99.4 | 0.0 | 100.0 | 0.2 | 99.8 | 0.0 | 100.0 |  |  |  |  |  |
| insulin | 0.5 | 99.5 | 0.7 |  |  |  |  |  |  |  |  |  |  |
| metreleptin | 0.0 | 100.0 | 0.0 | 100.0 | 0.0 | 100.0 | 0.0 | 100.0 |  |  |  |  |  |

Reference: patent US20140220134A1, “METHOD FOR TREATING DIABETES WITH EXTENDED RELEASE FORMULATION OF GLP-1 RECEPTOR AGONISTS” (Astrazeneca Pharamceuticals LP, priority 2011, published 2014)
